# Experimental data taken from US20250282812A1, “ANTIVIRAL NUCLEOSIDE ANALOGUE, AND PHARMACEUTICAL COMPOSITION AND USE THEREOF” (SHANGHAI INSTITUTE OF MATERIA MEDICA , CHINESE ACADEMY OF …, priority 2022, published 2025).
# How the values were obtained:
# [1] = Pharmacokinetic evaluation in rats (Test Example 1); format: in vivo; conditions: rat, nucleoside X28-1 in plasma, male SD rats, single iv 10.0 mg/kg
# Description: Male SD rats, divided into intravenous (iv) and intragastric (po) groups, were fasted for 16 h before the experiment (the intravenous group was not fasted), with free access to water, and were fed together 2 h after administration. Compound X28-1 was intravenously injected at a dose of 10.0 mg/kg (n=3), and compounds X22, X51, and X102 (n=3) were intragastrically administered in equimolar amounts to X28-1, which were 15.5 mg/kg, 16.5 mg/kg, and 16.6 mg/kg, respectively, with a vehicle of 5% DMSO+5% enthanol+40% PEG400+50% saline. 0.2-0.3 mL of blood was collected via the jugular vein at 5 min (intravenous only), 0.25 h, 0.5 h, 1.0 h, 2.0 h, 4.0 h, 6.0 h, 8.0 h, and 24 h after administration. The blood samples were transferred into heparin sodium anticoagulation tubes, gently mixed uniformly, and centrifuged at 2000 g for 10 min. Plasma was isolated and frozen in a refrigerator at −70° C. for later detection. The concentration of nucleoside X28-1 in the plasma was determined by the LC-MS-MS method and pharmacokinetic parameters were calculated.
# [2] = Pharmacokinetic evaluation in rats (Test Example 2); format: in vivo; conditions: rat, nucleoside X28-1 in plasma, male SD rats, single iv 5.0 mg/kg
# Description: A total of 12 male SD rats, divided into intravenous (IV) and intragastric (PO) groups, were fasted for 12 h before the experiment (the intravenous group was not fasted), with free access to water, and were fed together 2 h after administration. Compound X28-1 was intragastrically administered at a dose of 10.0 mg/kg (n=3) and intravenously injected at a dose of 5.0 mg/kg (n=3), and both compound X52 and compound X55 were intragastrically administered at a dose of 18.0 mg/kg (n=3), with a vehicle of 5% DMSO+5% enthanol+40% PEG400+50% saline. For the intravenous group, 0.2-0.3 mL of blood was collected via the jugular vein at 5 min, 0.25 h, 0.5 h, 1.0 h, 2.0 h, 4.0 h, 8.0 h, and 24.0 h after administration, and for the intragastric group, at 5 min, 0.5 h, 1.0 h, 2.0 h, 4.0 h, 6.0 h, 8.0 h, and 24.0 h after administration. The blood samples were transferred into heparin sodium anticoagulation tubes, gently mixed uniformly, and centrifuged at 2000 g for 10 min. Plasma was isolated and frozen in a refrigerator at −70° C. for later detection. The concentration of nucleoside X28-1 in the plasma was determined by the LC-MS-MS method and pharmacokinetic parameters were calculated.
# [3] = Pharmacokinetic evaluation in cynomolgus monkeys (Test Example 5); format: in vivo; conditions: cynomolgus monkey, nucleoside X28-1 in plasma, male cynomolgus monkeys, single iv 1.0 mg/kg
# Description: Male cynomolgus monkeys were fasted for 12 h before intragastric administration, with free access to water, and were fed together 2 h after administration. X28-1 was intravenously administered at a dose of 1.0 mg/kg (n=3) and intragastrically administered at a dose of 5.0 mg/kg (n=3), and X219 hydrochloride was intragastrically administered at a dose of 10.7 mg/kg (n=3), with a vehicle for the compounds of 5% DMSO+5% enthanol+40% PEG400+50% saline. 0.5 mL of blood was collected via the forelimb vein at 5 min (intravenous only), 0.25 h, 0.5 h, 1.0 h, 2.0 h, 4.0 h, 6.0 h, 8.0 h, and 24.0 h after administration. The blood samples were transferred into heparin sodium anticoagulation tubes, gently shaken and mixed uniformly, put on ice, and immediately centrifuged (4° C., 2000 g, 10 min). After centrifugation, 100 μL of plasma was accurately pipetted and added to a plastic tube containing 400 μL of methanol solution with an internal standard, temporarily stored on dry ice after being vortexed, and then stored in an ultra-low temperature refrigerator for later detection. The concentration of nucleoside X28-1 in the plasma was determined by the LC-MS-MS method and pharmacokinetic parameters were calculated.
# [4] = system: influenza virus (IFV) A/California/07/2009 (H1N1) pdm09 strain; assay: In vitro activity against influenza virus (CPE, CCK8, MDCK cells); format: cell-based; conditions: 120 h, read-out: IFV (MDCK) EC50
# [5] = system: respiratory syncytial virus (RSV) A long strain; assay: In vitro activity against respiratory syncytial virus (CPE, CCK8, HEp-2 cells); format: cell-based; conditions: human respiratory syncytial virus, 120 h, MOI=0.02, 5 days
# SFTSV-Nluc [6] = assay: microbe, parasite or virus in culture; format: cell-based, severe fever with thrombocytopenia syndrome virus (SFTSV); conditions: Severe fever with thrombocytopenia syndrome virus, Vero, 48 h
# [7] = system: wild-type SFSV virus (SFTSV-WT); format: in vivo; conditions: A129 mice infected with SFTSV-WT; X28-1 20 mpk intragastric once daily Day 0 to Day 6
# SFTSV-Nluc [8] = system: SFTSV-Nluc; design: species or system A129 mice; conditions: mouse
# [9] = system: respiratory syncytial virus (RSV A2); assay: In vivo efficacy for respiratory syncytial virus (RSV) in mice
# in vitro = conditions: dog
# [10] = Cytotoxicity in HEp-2 cells (CCK8); conditions: human
# [11] = Stability test of compounds in solutions at different pH values
structure (smiles),measurement,setting,value
"O=c1ccn([C@@H]2O[C@](F)(CO)[C@@H](O)[C@H]2O)c(=O)[nH]1 [Compound X28-1, reference compound]",AUC(0-inf),[1],22100 ng·h/mL
same,AUC(0-t),[1],20000 ng·h/mL
same,Cmax,[1],8080 ng/mL
same,half-life,[1],6.9 h
same,MRT inf,[1]; read-out: MRT0-∞,8.33 h
same,AUC(0-inf),[2],8690 ng·h/mL
same,AUC(0-t),[2],8290 ng·h/mL
same,Cmax,[2],2620 ng/mL
same,half-life,[2],6.09 h
same,MRT inf,[2]; read-out: MRT0-∞,6.89 h
same,AUC(0-inf),[3],3720 ng·h/mL
same,AUC(0-t),[3],3610 ng·h/mL
same,half-life,[3],5.38 h
same,MRT inf,[3]; read-out: MRT0-∞,4.21 h
same,EC50,[4],< 0.37 µM
same,EC50,[5],6.06 µM
same,EC50,SFTSV-Nluc [6],0.8 µM
same,inhibition at 10 µM,SFTSV-Nluc [6]; read-out: Inhibition rate (10 μM),95.3%
same,change in the body weight,[7],no significant change
same,survival rate,[7],100%
same,"in vivo fluorescence imaging, fluorescence intensity on ventral and dorsal side",SFTSV-Nluc [8],negligible fluorescence intensity
same,change in the body weight,"SFTSV-Nluc [8]; in vivo, 20 mg/kg",no significant change
same,"in vitro imaging of spleen, kidneys, liver and intestine: fluorescence intensity compared with the SFTSV-Nluc vehicle group","SFTSV-Nluc [8]; in vivo, 20 mg/kg",significantly weaker
same,spleen/body weight ratio and kidney/body weight ratio,"SFTSV-Nluc [8]; in vivo, 20 mg/kg",consistent with those in the blank control group
same,survival rate,"SFTSV-Nluc [8]; in vivo, 20 mg/kg",100%
same,viral titer and copy number in the spleen and kidney compared with the SFTSV-Nluc vehicle group,"SFTSV-Nluc [8]; in vivo, 20 mg/kg",significantly reduced
same,reduction in the pulmonary viral load compared with the vehicle group,"[9]; 10 mpk intragastric once daily, Day 4",about 0.4 log10
same,change in the body weight,"[9]; RSV A2-infected BALB/C mice, X219 hydrochloride 20 mpk or X28-1 10 mpk intragastric once daily",began to show an increase in the body weight on Day 3
same,CC50,in vitro,> 10 µM
same,CC50 at 5 days,[10],> 10 µM
same,Content reduction (%),"[11]; buffered saline solution pH 4.0, 3 h",5.7%
same,Content reduction (%),"[11]; buffered saline solution pH 4.0, 6 h",12.2%
same,Content reduction (%),"[11]; buffered saline solution pH 4.0, 9 h",17.5%
same,Content reduction (%),"[11]; buffered saline solution pH 4.0, 12 h",22.2%
same,Content reduction (%),"[11]; buffered saline solution pH 4.0, 15 h",26.9%
same,Content reduction (%),"[11]; buffered saline solution pH 4.0, 18 h",30.3%
same,Content reduction (%),"[11]; buffered saline solution pH 4.0, 21 h",35.9%
same,Content reduction (%),"[11]; buffered saline solution pH 4.0, 24 h",40.1%
same,Content reduction (%),"[11]; buffered saline solution pH 6.8, 3 h",8.0%
same,Content reduction (%),"[11]; buffered saline solution pH 6.8, 6 h",15.3%
same,Content reduction (%),"[11]; buffered saline solution pH 6.8, 9 h",22.0%
same,Content reduction (%),"[11]; buffered saline solution pH 6.8, 12 h",28.3%
same,Content reduction (%),"[11]; buffered saline solution pH 6.8, 15 h",33.4%
same,Content reduction (%),"[11]; buffered saline solution pH 6.8, 18 h",38.0%
same,Content reduction (%),"[11]; buffered saline solution pH 6.8, 21 h",42.9%
same,Content reduction (%),"[11]; buffered saline solution pH 6.8, 24 h",46.9%
